Holding throughout (assay type): physicochemical
Data set [1] can be described thus: Oxidation potential (Ep) of cyanine dyes, saturated calomel electrode as reference. The note with it: saturated calomel electrode (SCE) as reference electrode.
Data set [2] can be described thus: Change of absorbance at maximum absorption wavelength after reaction with reactive oxygen species (Example 2). The note with it: 10 μM dye in 0.1 M phosphate buffer; all reactive oxygen species (hydroxyl radical, peroxynitrite, hypochlorite ion, superoxide anion); FIG. 2. The procedure:
(§1) Cy5, Cy7, Compound 2 (cyanine compound constituting the second cyanine compound residue) and Compound 3 (cyanine compound constituting the first cyanine compound residue), the latter two of which were obtained above, were reacted with hydroxyl radical, peroxynitrite, hypochlorite ion, and superoxide anion, and change of absorbance at the maximum absorption wavelength was measured. For the measurement, 10 μM solutions of Cy5, Cy7, Compound 2, and Compound 3 in 0.1 M phosphate buffer were prepared, and the measurement was performed with the prepared solutions under the following conditions.
Hydrogen peroxide and iron(II) perchlorate were added to final concentrations of 1 mM and 50 μM, respectively.
Peroxynitrite was added to a final concentration of 10 μM.
Hypochlorite ions were added to a final concentration of 10 μM.
(§2) Xanthine oxidase and xanthine were added to final concentrations of 4 mU and 33 μM, respectively.
(§3) In the graph, the test results for those reactive oxygen species are indicated in the order of Cy5, Compound 2, Cy7, and Compound 3 from the left.

The nature of data set [3]: Change of absorbance at maximum absorption wavelength after reaction with superoxide anion (Example 2). Conditions: 10 μM dye in 0.1 M phosphate buffer; xanthine oxidase 4 mU, xanthine 33 μM; FIG. 2. The procedure:
as §1, §2, §3

Molecule `CCN1C(=CC=CC=CC=CC2=[N+](CCCCCC(=O)O)c3ccc(S(=O)(=O)O)cc3C2(C)C)C(C)(C)c2cc(S(=O)(=O)[O-])ccc21` [Cy7, reference compound] showed an Ep in data set [1] of 0.476 V vs SCE. Moreover, the “Decrease of absorbance at maximum absorption wavelength upon addition of reactive oxygen species” value in data set [2] was “larger decrease of absorbance than did Cy5”.
For `CN1/C(=C/C=C2\CCCC(/C=C/C3=[N+](C)c4ccccc4C3(C)C)=C2SCCC(=O)O)C(C)(C)c2ccccc21` [Compound 3] the same measures were 0.333 V vs SCE and “larger decrease of absorbance than did Cy7”.
Take Cy5 [reference compound]: the Ep in data set [1] is given as 0.516 V vs SCE.
Take `CC1(C)C(/C=C/C=C/C=C2/N(CCC(=O)O)c3ccc(S(=O)(=O)O)cc3C2(C)C)=[N+](CCC(=O)O)c2ccc(S(=O)(=O)O)cc21` [Compound 2]: the Ep in data set [1] came out at 0.658 V vs SCE. The “Decrease of absorbance at maximum absorption wavelength upon addition of reactive oxygen species” value in data set [2] is given as “the smallest decrease of absorbance”. The “Decrease of absorbance at maximum absorption wavelength for superoxide anion” value in data set [3] was “no decrease of absorbance”.

The values are drawn from patent publication US20110111515A1, “REAGENT FOR MEASUREMENT OF REACTIVE OXYGEN” (THE UNIVERSITY OF TOKYO, priority 2008, published 2011).
